The test system of data set [1] is MV4-11. Kind of data set: Antiproliferative activity against human MV4-11 cells assessed as inhibition of cell growth incubated for 72 hrs by CellTiterGlo luminescent assay. The following applies: MV4-11, 72 h. The format is functional, cell-based. (In general: In ATP-based viability assays light output follows the ATP content of the culture.)
Data set [2] deals with BaF3. Put plainly: Antiproliferative activity against mouse BaF3 cells harboring FLT3-ITD-F691L mutant assessed as residual cell viability at 10 nM incubated for 72 hrs by CellTiterGlo luminescent assay. It is filed as functional.
Data set [3] relates to BaF3. Put plainly: Antiproliferative activity against mouse BaF3 cells harboring FLT3-ITD-F691L mutant assessed as residual cell viability at 50 nM incubated for 72 hrs by CellTiterGlo luminescent assay. The format is functional.
The test system of data set [4] is BaF3. Put plainly: Antiproliferative activity against mouse BaF3 cells harboring FLT3-ITD-F691L mutant assessed as residual cell viability at 0.1 uM incubated for 72 hrs by CellTiterGlo luminescent assay. The format is functional.
The subject of data set [5] is BaF3. Kind of data set: Antiproliferative activity against mouse BaF3 cells harboring FLT3-ITD-F691L mutant assessed as reduction in cell viability incubated for 72 hrs by CellTiterGlo luminescent assay. It is filed as functional, cell-based. The following applies: BaF3, 72 h.
The test system of data set [6] is MV4-11. Kind of data set: Antitumor activity against human MV4-11 cells xenografted in BALB/c mouse assessed as tumor growth inhibition at 30 mg/kg, iv QD for 21 days by vernier caliper analysis. It is filed as functional. The following applies: MV4-11, 504 h, time 21 day, read-out: TGI. A general note: In xenograft studies the graft and the host belong to different species.

Data set [7] is described as follows: Toxicity in BALB/c mouse xenografted with human MV4-11 cells assessed as mortality at 30 mg/kg, iv QD for 10 days. The format is organism-based. The following applies: in vivo, 240 h, time 10 day.
The test system of data set [8] is MV4-11. Kind of data set: Antitumor activity against human MV4-11 cells xenografted in BALB/c mouse assessed as inhibition rate of tumor weight at 30 mg/kg, iv QD for 21 days by vernier caliper analysis. The format is functional. The following applies: MV4-11, 504 h, time 21 day.
In data set [9] the test system is BaF3. Put plainly: Antiproliferative activity against mouse BaF3 cells harboring FLT3-ITD mutant assessed as reduction in cell viability measured after 72 hrs by CellTiterGlo luminescent assay. The format is functional, cell-based. The following applies: BaF3, 72 h.
Data set [10] in a line: Antiproliferative activity against mouse BaF3 cells assessed as reduction in cell viability measured after 72 hrs by CellTiterGlo luminescent assay. It is filed as toxicity, cell-based.
Data set [11] concerns BaF3. Put plainly: Antiproliferative activity against mouse BaF3 cells harboring FLT3-ITD-N676D mutant assessed as reduction in cell viability measured after 72 hrs by CellTiterGlo luminescent assay. It is filed as functional, cell-based. The following applies: BaF3, 72 h.
For data set [12], the system named is BaF3. The format is functional, cell-based. The following applies: Mus musculus, BaF3, 72 h.
Data set [13] relates to BaF3. Kind of data set: cells. The following applies: Mus musculus, BaF3, 72 h.
Description: Antiproliferative activity against mouse BaF3 cells harboring FLT3-ITD-D835V mutant assessed as reduction in cell viability measured after 72 hrs by CellTiterGlo luminescent assay
The subject of data set [14] is BaF3. Kind of data set: Antiproliferative activity against mouse BaF3 cells harboring FLT3-ITD-Y842H mutant assessed as reduction in cell viability measured after 72 hrs by CellTiterGlo luminescent assay. The format is functional, cell-based. The following applies: BaF3, 72 h.

As to `CCN1CCN(c2ccc(C(=O)Nc3cc(-c4ccc5ncn(Cc6cccc(F)c6Cl)c5c4)[nH]n3)cc2)CC1`, the IC50 in the data set with MV4-11 [1] was 12.5 nM. Moreover, the Activity worked out at 101.05% with BaF3 [2] and 47.53% in the data set on BaF3 [3].
With `CN1CCN(c2ccc(C(=O)Nc3cc(-c4ccc5ncn(Cc6ccccc6Cl)c5c4)[nH]n3)cc2)CC1`, in the data set on BaF3 [4], the Activity was found to be 20.29%. For the same compound, the half-maximal inhibitory concentration (IC50) in the data set on MV4-11 [1] is 30 nM; in the data set on BaF3 [5], 82.8 nM.
For `CCN1CCN(c2ccc(C(=O)Nc3cc(-c4ccc5ncn(Cc6cc(F)ccc6Cl)c5c4)[nH]n3)cc2)CC1`, the IC50 with MV4-11 [1] was 12.6 nM. The Activity is on record as 107.7% with BaF3 [2] and 49.36% in the data set on BaF3 [3].
With `Nc1ccn([C@@H]2O[C@H](CO)[C@@H](O)[C@@H]2O)c(=O)n1` [CYTARABINE], the results for the inhibition in vivo at 30 mg/kg in the data set with MV4-11 [6] and with MV4-11 [8] were 66% and 50.6%, respectively. Further, in data set [7], the Activity result was “Toxic”.
With `CCN1CCN(c2ccc(C(=O)Nc3cc(-c4ccc5ncn(Cc6ccccc6Cl)c5c4)[nH]n3)cc2)CC1`, the results for the Activity with BaF3 [4], in the data set on BaF3 [2] and in the data set on BaF3 [3] were 1.72%, 90.16% and 19.95%, respectively. Also, the IC50 came out at 12.4 nM in the data set with MV4-11 [1] and 29.2 nM in the data set on BaF3 [5].
On to `CCN1CCN(c2ccc(C(=O)Nc3cc(-c4ccc5ncn(Cc6c(C)cccc6C)c5c4)[nH]n3)cc2)CC1`, for which the IC50 with MV4-11 [1] was 4.85 nM. Besides, the figures for the Activity with BaF3 [2] and in the data set with BaF3 [3] were 103.84% and 4.57%, respectively.
`O=C(Nc1cc(-c2ccc3ncn(Cc4ccccc4Cl)c3c2)[nH]n1)c1ccc(N2CCNCC2)cc1`: the Activity with BaF3 [4] worked out at 14.55%. Also, the concentration for half-maximal inhibition (IC50) came out at 13.8 nM in the data set with MV4-11 [1] and 60.9 nM in the data set with BaF3 [5].
For the compound `CC(C)(C)c1cc(NC(=O)Nc2ccc(-c3cn4c(n3)sc3cc(OCCN5CCOCC5)ccc34)cc2)no1` [QUIZARTINIB], the IC50 was found to be 3.52 nM with BaF3 [9]; 5.41 nM in the data set with BaF3 [11]; 27.1 nM in the data set on BaF3 [12]; 133 nM with BaF3 [5]; 49.6 nM with BaF3 [13]; 15 nM in the data set with BaF3 [14]. Further, the IC50 at 72 h in [10] was more than 1000 nM.
With `CCN1CCN(c2ccc(C(=O)Nc3cc(-c4ccc5ncn(Cc6c(F)cccc6Cl)c5c4)[nH]n3)cc2)CC1`, in the data set with MV4-11 [1], the IC50 came to 2.61 nM. The Activity was determined as 101.37% with BaF3 [2] and 21.63% with BaF3 [3].

In general, IC50 refers to the concentration that inhibits the measured activity by half.
